Each structure is given as a SMILES string. Several values for one entry are separate records, joined by “and”; a condition that tells them apart may be missing. Equal values may be shown once.

For series [1], the system named is human erythroid progenitors (CFU-E, BFU-E). Description: Erythroid CFU assay. Conditions: for activity at 10 µM: Bone marrow cell, 336 h, 14 days culture, human bone marrow cells, read-out: Erythroid % control @ 10 uM dose. It counts as cell-based. The method, then:
(§1) Compounds were tested to evaluate the potential effects on human erythroid and myeloid progenitors using colony forming cell assays. Clonogenic progenitors of human erythroid (CFU-E, BFU-E), granulocyte-monocyte (CFU-GM) and multipotential (CFU-GEMM) lineages were assessed in a semi-solid methylcellulose-based media formulation containing rhIL-3 (10 ng/mL), rhGM-SCF (10 ng/mL), rhSCF (50 ng/mL) and Epo (3 U/mL).
(§2) Normal human bone marrow light density cells derived from normal bone marrow (NorCal Biologics, California), were stored in the gaseous phase of liquid nitrogen (−152° C.) until required for the assay. On the day of the experiment, the cells were thawed rapidly, the contents of each vial was diluted in 10 mL of Iscove's modified Dulbecco's medium containing 10% fetal bovine serum (IMDM+10% FBS) and washed by centrifugation (approximately 1200 r.p.m. for 10 minutes, room temperature). The supernatant was discarded and the cell pellets resuspended in a known volume of IMDM+10% FBS. A cell count (3% glacial acetic acid) and viability assessment (trypan blue exclusion test) was performed for the bone marrow sample.
(§3) On the day of the experiment, the compounds were dissolved in DMSO to a stock concentration of 10 mM. Serial dilutions were prepared from the stock concentration to achieve concentrations of 2 and 0.4 mM. When added to the methylcellulose-based media at 1:1000 (v/v), the final test concentrations of 10, 2 and 0.4 μM were achieved. Additionally, 5-FU was evaluated at 1.0, 0.1 and 0.01 μg/mL.
(§4) Clonogenic progenitors of the human erythroid (CFU-E and BFU-E) and myeloid (CFU-GM) lineages were set up in the methylcellulose-based media formulations described above. All compounds were added to the medium to give the final desired concentrations (10, 2 and 0.4 μM). 5-Fluorouracil (Sigma Aldrich) was used as a positive control for progenitor proliferation (inhibition of colony growth) and was introduced to the human bone marrow cultures at 1.0, 0.1, and 0.01 μg/mL. Solvent control cultures (containing no compound but 0.1% DMSO) as well as standard controls (containing no compound and no DMSO) were also initiated.
(§5) Human myeloid and erythroid progenitor assays were initiated at 2.0×10^4 cells per culture. Following 14 days in culture, myeloid and erythroid colonies were assessed microscopically and scored by trained personnel. The colonies were divided into the following categories based on size and morphology: CFU-E, BFU-E, CFU-GM and CFU-GEMM.
(§6) The mean±one standard deviation of three replicate cultures was calculated for progenitors of each category (CFU-E, BFU-E, etc.). Two-tailed t-tests were performed to assess if there was a difference in the number of colonies generated between solvent control and treated cultures. Due to the potential subjectivity of colony enumeration, a p value of less than 0.01 is deemed significant. To calculate the concentration of 50% inhibition of colony growth (IC50) for each compound, a dose response curve was generated plotting the log of the compound concentration versus the percentage of control colony growth using XLfit software (IDBS). The concentration of 50% inhibition of colony growth (IC50) was calculated based on the sigmoid curve fit using Dose-Response, One-Site Model formula: y=A+[(B−A)/(1+((C/x)^D))], where A=the initial value (baseline response), B=maximum response, C=center (drug concentration that provokes a response halfway between A and B) and D=slope of the curve at midpoint. Further, plots and additional dose response curves were generated using GraphPad Prism 7.0.
(§7) Erythroid (CFU-E and BFU-E), myeloid (CFU-GM) and multi-potential (CFU-GEMM) colony enumeration was performed by trained personnel. The distribution of colony types as well as general colony and cellular morphology was analyzed. For statistical analysis colony numbers in compound treated cultures were compared to the solvent control cultures. […]

The subject of series [2] is human myeloid progenitors (CFU-GM). Description: Myeloid CFU assay. It counts as cell-based. The settings on record: 336 h, 14 days culture, human bone marrow cells, read-out: Myeloid % control @ 10 uM dose. As for the experimental part:
as §1, §2, §3, §4, §5, §6, §7

Series [3] is described as follows: Brain and plasma exposure following IV and PO administration to mice. The settings on record: for Brain Cmax @ 10 mpk / Projected free brain @ 10 mpk: 10 mg/kg PO; for brain Cmax exposure, fold higher than comparator 1 / projected free brain concentration, fold higher than comparator 1: comparator 1 data scaled for comparison. It counts as in vivo. As for the experimental part:
Compounds were dosed in mice at either 10 mg/kg or 30 mg/kg PO, and were dosed at 1 mg/kg IV. Three animals for collection at each time point for plasma via bleeding at 0.25, 0.5, 1, 4, 12 and 24 h. Terminal bleeding for plasma and sampling for brain at 0.25, 0.5, 1, 4, 12 and 24 h (also three animals per brain exposure time point group). Total of six time points for plasma and six time points for brain.
Plasma: The animal was restrained manually at the designated time points, approximately 150 μL blood/time point was collected into K2EDTA tube via retro orbital puncture or cardiac puncture under anesthesia with Isoflurane. The blood sample was centrifuged (2000 g, 4° C., 5 min) to generate plasma within 30 min after bleeding.
Brain: At the designated time points, a mid-line incision was made in the animals scalp and the skin was retracted. Using small bone cutters and rongeurs, removed the skull overlying the brain. Removed the brain using a spatula and rinse with cold saline. Placed the brain in screw-top tubes, and then stored the tubes under −70° C. until analysis.

For the compound `Nc1ccc(-c2ccc(F)cc2)nc1NC(=O)N1Cc2cncnc2C1` [Comparator 1, reference compound], the figures for the activity at 10 µM in series [1] and in series [2] were 47.1% and 83.9%, respectively. The “Brain Cmax @ 10 mpk (*scaled for comparison)” value in series [3] (dosed 30 mg/kg PO, scaled to 10 mg/kg PO) is given as 158* ng/g.
Take `Cn1cc2c(n1)CN(C(=O)Nc1nc(-c3ccc(F)cc3)ccc1N)C2` [Comparator 2, reference compound]: the activity at 10 µM in series [1] was 15.7%; in series [2], 30.4%.
The corresponding values for `Cc1cc2c(cn1)CN(C(=O)Nc1nc(-c3ccc(F)cc3)ccc1N)C2` [Comparator 3, reference compound] are 25.7% and 66.1%.
The corresponding values for `COCc1cc2c(cn1)CN(C(=O)Nc1nc(-c3ccc(F)cc3)ccc1N)C2` [Comparator 5, reference compound] are 22.9% and 58.9%.
With `COCCn1cc2c(n1)CN(C(=O)Nc1nc(-c3ccc(F)cc3)ccc1N)C2` [Comparator 6, reference compound], the activity at 10 µM worked out at 28% in series [1] and 39% in series [2].
Consider `Nc1ccc(-c2cccs2)nc1NC(=O)N1Cc2cncnc2C1` [Comparator 6, reference compound], for which, in series [3], the “Brain Cmax @ 10 mpk” value was 100 ng/g and the “Projected free brain @ 10 mpk” value turned out to be 0.103 µM.
`Nc1ccc(-c2ccc(F)cc2)nc1NC(=O)N1Cc2cn(C3COC3)nc2C1` [Compound 1]: the activity at 10 µM stood at 37% in series [1] and 54% in series [2]. In series [3], the “Brain Cmax @ 10 mpk” value is 636 ng/g.
The matching figures for `Cc1ncc2c(n1)CN(C(=O)Nc1nc(-c3ccc(F)s3)ccc1N)C2` [Compound 2]: 40%, 87% and 760 ng/g.
`CCc1ncc2c(n1)CN(C(=O)Nc1nc(-c3cccs3)ccc1N)C2` [Compound 3]: the activity at 10 µM in series [1] was 46.6%; in series [2], 89.4%. Further, the “Brain Cmax @ 10 mpk” value in series [3] stood at 526 ng/g.
Take `Cc1ncc(-c2ccc(N)c(NC(=O)N3Cc4cn(C)nc4C3)n2)s1` [Compound 4]: the activity at 10 µM in series [1] came out at 53%; in series [2], 96%. Also, the “Brain Cmax @ 10 mpk” value in series [3] came out at 324 ng/g.
On to `O=c1[nH]cc(F)c(=O)[nH]1` [Compound 5-FU, 5-Fluorouracil, reference compound], for which the “inhibitory effects on colony growth (positive control for toxicity)” value in series [1] (1.0, 0.1 and 0.01 μg/mL, erythroid and myeloid assays) is “exactly as expected”.
As for `Cc1ncc(-c2ccc(N)c(NC(=O)N3Cc4cn(CC(F)F)nc4C3)n2)s1` [Compound 5], in series [3], the “Brain Cmax @ 10 mpk” value stood at 277 ng/g.
Turning to `Cc1nc2c(n1C)CN(C(=O)Nc1nc(-c3ccc(F)cc3)ccc1N)C2` [Compound 7], in series [3], the “Brain Cmax @ 10 mpk” value amounted to 102 ng/g.
For `CCc1cc2c(cn1)CN(C(=O)Nc1nc(-c3cccnc3)ccc1N)C2` [Compound 8], the activity at 10 µM stood at 98% in series [1] and 102% in series [2]. The “Brain Cmax @ 10 mpk” value in series [3] was 279 ng/g.
Consider `COCCn1cc2c(n1)CN(C(=O)Nc1nc(-c3ccc(F)cc3F)ccc1N)C2` [Compound 9], for which the activity at 10 µM is 40.4% in series [1] and 62.8% in series [2]. Besides, the “Brain Cmax @ 10 mpk” value in series [3] is 1533 ng/g and 1383 ng/g.
For the compound `Cn1cc2c(n1)CN(C(=O)Nc1nc(-c3cccnc3)ccc1N)C2` [Compound 11], the activity at 10 µM in series [1] worked out at 94%. Also, the activity at 10 µM in series [2] turned out to be 103%. For the same compound, in series [3], the “Brain Cmax @ 10 mpk” value came to 369 ng/g and the “Projected free brain @ 10 mpk” value was 0.664 µM.
Turning to `Cc1cc2c(cn1)CN(C(=O)Nc1nc(-c3cccnc3)ccc1N)C2` [Compound 12], the activity at 10 µM in series [1] stood at 93%; in series [2], 104%. The “Brain Cmax @ 10 mpk” value in series [3] is recorded as 237 ng/g.
For the compound `Cc1ncc2c(n1)CN(C(=O)Nc1nc(-c3ccc(F)cc3)ccc1N)C2` [Compound 14], the activity at 10 µM in series [1] is 53%. Also, the activity at 10 µM in series [2] came out at 112%. Also, in series [3], the “Brain Cmax @ 10 mpk” value amounted to 633 ng/g; the “brain Cmax exposure, fold higher than comparator 1” value was found to be 4 fold; the “projected free brain concentration, fold higher than comparator 1” value is recorded as 4 fold.
For the compound `CCc1ncc2c(n1)CN(C(=O)Nc1nc(-c3ccc(F)cc3)ccc1N)C2` [Compound 17], in series [1], the activity at 10 µM was determined as 59.6%. The activity at 10 µM in series [2] is 79.1%. Also, in series [3], the “Brain Cmax @ 10 mpk” value stood at 1241 ng/g; the “brain Cmax exposure, fold higher than comparator 1” value was around 7 fold; the “projected free brain concentration, fold higher than comparator 1” value is given as 5 fold.

The record behind these values is patent US11225479B2, “Bicyclic inhibitors of histone deacetylase” (Alkermes, Inc., priority 2017, dated 2022).
